Assay results from ChEMBL document CHEMBL1201862, “PubChem BioAssay data set” (2004).
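These data come from cells grown in 96-well plates and exposed to compound for 48 hours at five concentrations. GI50 marks 50% less growth.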 The source made the active and inactive calls. Rule as the data show it: active = GI50 up to about 1.1 µM and inactive = higher.

Tests used:
Experiment in all cases: NCI anticancer screen, dose series, 48 h
HCT-15 = test system: HCT-15
SNB-19 = test system: SNB-19
OVCAR-5 = test system: OVCAR-5
COLO 205 = test system: COLO 205
SK-MEL-5 = test system: SK-MEL-5
EKVX = test system: EKVX
PC-3 = test system: PC-3
UACC-257 = test system: UACC-257
NCI-H23 = test system: NCI-H23
SK-OV-3 = test system: SK-OV-3
Hs-578T = test system: Hs-578T
MCF7 = test system: MCF7
UACC-62 = test system: UACC-62
SK-MEL-28 = test system: SK-MEL-28
U-251 = test system: U-251
A498 = test system: A498
M14 = test system: M14
NCI-H522 = test system: NCI-H522
Malme-3M = test system: Malme-3M
SF-539 = test system: SF-539

| SMILES | GI50 (HCT-15) [µM] | GI50 (SNB-19) | GI50 (OVCAR-5) | GI50 (COLO 205) | GI50 (SK-MEL-5) | GI50 (EKVX) | GI50 (PC-3) | GI50 (UACC-257) | GI50 (NCI-H23) | GI50 (SK-OV-3) | GI50 (Hs-578T) | GI50 (MCF7) | GI50 (UACC-62) | GI50 (SK-MEL-28) | GI50 (U-251) | GI50 (A498) | GI50 (M14) | GI50 (NCI-H522) | GI50 (Malme-3M) | GI50 (SF-539) |
| --- | --- | --- | --- | --- | --- | --- | --- | --- | --- | --- | --- | --- | --- | --- | --- | --- | --- | --- | --- | --- |
| Cc1ccsc1/C=N/Nc1ccc2ccccc2n1 | 24.8 | 39.4 µM (inactive) | > 100 µM (inactive) | 27.7 µM (inactive) | 3.4 µM (inactive) | 20.3 µM (inactive) | 19.6 µM (inactive) | 6.12 µM (inactive) | 51.1 µM (inactive) | 16.5 µM (inactive) | 37.7 µM (inactive) | 11.4 µM (inactive) | 25.1 µM (inactive) | 80.4 µM (inactive) | 49 µM (inactive) | 7.76 µM (inactive) | 29.1 µM (inactive) |  |  |  |
| Cn1c(=O)c2c(nc3n2CCCC(=O)N3CC(O)CCl)n(C)c1=O (stereo not given) | > 100 | > 100 µM (inactive) | > 100 µM (inactive) | > 100 µM (inactive) | > 100 µM (inactive) | > 100 µM (inactive) | > 100 µM (inactive) | > 100 µM (inactive) | > 100 µM (inactive) | > 100 µM (inactive) | > 100 µM (inactive) | > 100 µM (inactive) | > 100 µM (inactive) | > 100 µM (inactive) | > 100 µM (inactive) | > 100 µM (inactive) | > 100 µM (inactive) | > 100 µM (inactive) |  |  |
| CCC(C)(O)c1cnc(CC(C)C)c(=O)n1O (stereo not given) | 38 | 55.8 µM (inactive) | 0.597 µM (active) | 54.7 µM (inactive) | 88.1 µM (inactive) | 49.4 µM (inactive) | 48.3 µM (inactive) | 97.3 µM (inactive) | 78.2 µM (inactive) | 87.5 µM (inactive) | 80.7 µM (inactive) |  | 68.2 µM (inactive) | 63.5 µM (inactive) | 47.9 µM (inactive) | > 100 µM (inactive) |  |  |  |  |
| NC1=C(N2CCCCC2)C(=O)NC2=N/C(=C\c3ccco3)C(=O)N21 | > 100 | > 100 µM (inactive) | > 100 µM (inactive) | > 100 µM (inactive) | > 100 µM (inactive) | > 100 µM (inactive) |  | > 100 µM (inactive) | > 100 µM (inactive) | > 100 µM (inactive) | > 100 µM (inactive) |  |  | > 100 µM (inactive) | > 100 µM (inactive) | > 100 µM (inactive) | > 100 µM (inactive) | > 100 µM (inactive) | > 100 µM (inactive) | > 100 µM (inactive) |
| C=C1CCC2[C@](C)(CCC[C@]2(C)C(=O)O)[C@@H]1CCc1ccoc1 (stereo not given in full) | 26.8 | 43.5 µM (inactive) | 90.6 µM (inactive) | 17.4 µM (inactive) | 36.6 µM (inactive) | 34.3 µM (inactive) | 46 µM (inactive) | 29 µM (inactive) | 21.4 µM (inactive) | > 100 µM (inactive) | 33.2 µM (inactive) |  | 35.2 µM (inactive) | 61.1 µM (inactive) |  | 47 µM (inactive) | 41.1 µM (inactive) | 68.5 µM (inactive) | 32.2 µM (inactive) | 37 µM (inactive) |
| COC(=O)C(C)(C)NC(=O)C(Cc1ccccc1)Nc1ncnc2c1ncn2-c1ccc(OC)cc1 (stereo not given) | 34.8 | > 100 µM (inactive) | 42.2 µM (inactive) | 17.7 µM (inactive) | 24.8 µM (inactive) | 10.8 µM (inactive) | 29.5 µM (inactive) | 39.9 µM (inactive) | 56.8 µM (inactive) | 46.8 µM (inactive) | 27.8 µM (inactive) | 23 µM (inactive) | 39.1 µM (inactive) | 33.6 µM (inactive) | 26.5 µM (inactive) | 20.1 µM (inactive) | 42.7 µM (inactive) | 13.1 µM (inactive) |  |  |
| Cc1ccc(S(=O)(=O)N2CCCSCCN(S(=O)(=O)c3ccc(C)cc3)CCCSCC2)cc1 |  | > 100 µM (inactive) | > 100 µM (inactive) | > 100 µM (inactive) | > 100 µM (inactive) | > 100 µM (inactive) |  | > 100 µM (inactive) | > 100 µM (inactive) | > 100 µM (inactive) | > 100 µM (inactive) | > 100 µM (inactive) | > 100 µM (inactive) | > 100 µM (inactive) | > 100 µM (inactive) | > 100 µM (inactive) | > 100 µM (inactive) |  |  | > 100 µM (inactive) |
| C=C(C)C(=O)OC1CC2(C)OC(=CC2=O)C(C)CC2OC(=O)C(=C)C12 (stereo not given) | 1.65 | 21.4 µM (inactive) | 10.4 µM (inactive) | 1.23 µM (inactive) | 3.52 µM (inactive) | 7.76 µM (inactive) | 14 µM (inactive) | 12.3 µM (inactive) | 8.89 µM (inactive) | 34.9 µM (inactive) |  | 2.78 µM (inactive) | 10.8 µM (inactive) | 4.2 µM (inactive) | 16.5 µM (inactive) | 15.2 µM (inactive) | 5.48 µM (inactive) | 0.832 µM (active) | 3.44 µM (inactive) | 3.91 µM (inactive) |
| COCCN1C(=O)C2c3[nH]c4ccccc4c3C3CCC(C(C)(C)C)CC3C2C1=O (stereo not given) | 16.9 | 19.1 µM (inactive) |  | 18.2 µM (inactive) | 17 µM (inactive) | 17.9 µM (inactive) | 13.4 µM (inactive) | 16.7 µM (inactive) | 22.6 µM (inactive) | 20.2 µM (inactive) | 17.2 µM (inactive) | 18.4 µM (inactive) | > 10 µM (inactive) | 17.5 µM (inactive) | 15.5 µM (inactive) |  | 18.5 µM (inactive) | 18 µM (inactive) |  | 19.1 µM (inactive) |
| CC[C@@H](/C=C\CCC1(C[C@@H](N)CCC=C(C)C)OCCO1)O[Si](C(C)C)(C(C)C)C(C)C | 18.9 | 18.5 µM (inactive) | 17.2 µM (inactive) | 13.6 µM (inactive) | 18.1 µM (inactive) | 15.6 µM (inactive) | 16.1 µM (inactive) | 19.3 µM (inactive) | 21.1 µM (inactive) | 20 µM (inactive) | 26 µM (inactive) | 16.3 µM (inactive) | 17.8 µM (inactive) | 18 µM (inactive) | 19.9 µM (inactive) | 18.2 µM (inactive) | 18.5 µM (inactive) | 20 µM (inactive) |  | 17.7 µM (inactive) |
| CC(C)=C1C(=O)c2c(Cl)sc(Cl)c2C1=O | 20.7 |  | > 100 µM (inactive) | 20.9 µM (inactive) | 93.3 µM (inactive) | 27.7 µM (inactive) |  | 21.3 µM (inactive) | 17.8 µM (inactive) | > 100 µM (inactive) | 32.8 µM (inactive) | 41.2 µM (inactive) | 19.9 µM (inactive) | 21.7 µM (inactive) | 22.2 µM (inactive) | > 100 µM (inactive) | 19 µM (inactive) | 16.4 µM (inactive) | 19 µM (inactive) | 22.3 µM (inactive) |
| CC(=O)C(=NNc1ccc(-n2c(C)nc3ccccc3c2=O)cc1)C(C)=O | > 100 | > 100 µM (inactive) | > 100 µM (inactive) | > 100 µM (inactive) | 11.7 µM (inactive) | > 100 µM (inactive) | > 100 µM (inactive) | > 100 µM (inactive) | > 100 µM (inactive) | > 100 µM (inactive) | > 100 µM (inactive) | > 100 µM (inactive) | > 100 µM (inactive) | > 100 µM (inactive) | > 100 µM (inactive) | > 100 µM (inactive) | > 100 µM (inactive) |  |  | > 100 µM (inactive) |
| O=C(CC(=O)Nc1cccc(C(=O)O)c1)Nc1cccc(C(=O)O)c1 | > 100 | > 100 µM (inactive) |  | > 100 µM (inactive) | > 100 µM (inactive) | > 100 µM (inactive) | > 100 µM (inactive) | > 100 µM (inactive) | > 100 µM (inactive) |  | > 100 µM (inactive) | > 100 µM (inactive) | 96.6 µM (inactive) | > 100 µM (inactive) | > 100 µM (inactive) | > 100 µM (inactive) | > 100 µM (inactive) | > 100 µM (inactive) |  | > 100 µM (inactive) |
| CC1(C)C[C@@H]2C1CCC1(C)CC2(O)CC[C@H]1O (stereo not given in full) | > 100 | > 100 µM (inactive) | > 100 µM (inactive) | > 100 µM (inactive) | > 100 µM (inactive) | > 100 µM (inactive) | > 100 µM (inactive) | > 100 µM (inactive) | > 100 µM (inactive) | > 100 µM (inactive) | > 100 µM (inactive) | > 100 µM (inactive) | > 100 µM (inactive) | > 100 µM (inactive) | > 100 µM (inactive) |  | > 100 µM (inactive) | > 100 µM (inactive) | > 100 µM (inactive) |  |
| C[n+]1c(/C=C/c2ccc(/C=N/NC(=O)c3ccc(C(=O)N/N=C/c4ccc(/C=C/c5cn6ccccc6[n+]5C)cc4)cc3)cc2)cn2ccccc21 | > 100 | > 100 µM (inactive) | > 100 µM (inactive) | 98.4 µM (inactive) | 1.89 µM (inactive) | > 100 µM (inactive) | > 100 µM (inactive) | > 100 µM (inactive) | > 100 µM (inactive) | > 100 µM (inactive) | > 100 µM (inactive) | > 100 µM (inactive) |  | > 100 µM (inactive) | > 100 µM (inactive) |  | > 100 µM (inactive) |  | > 100 µM (inactive) | > 100 µM (inactive) |
| CC1=C(C(=O)NNC(=O)C[N+](C)(C)C)CC(C(=O)NNC(=O)C[N+](C)(C)C)=C(C)N1 | > 100 | > 100 µM (inactive) | > 100 µM (inactive) | > 100 µM (inactive) | > 100 µM (inactive) | > 100 µM (inactive) | > 100 µM (inactive) | > 100 µM (inactive) | > 100 µM (inactive) | > 100 µM (inactive) | > 100 µM (inactive) | > 100 µM (inactive) | > 100 µM (inactive) |  | > 100 µM (inactive) | 61.7 µM (inactive) | > 100 µM (inactive) | > 100 µM (inactive) |  | > 100 µM (inactive) |
